The results in this text go back to patent US20250113823A1, “Arthropod Control Compositions” (priority 2022, published 2025).

Where two headings read alike, the source gives them in different places.

For test [1], the system named is Aedes aegypti. Description: Warm Body assay, mosquito landings on treated warm body. The test is classed as in vivo. The settings on record: for pest or weed control at 1 % / pest or weed control at 0.04 %: read-out: repellence; for pest or weed control at 0.04 %: intermediate concentration of 0.04% (Table 3); for pest or weed control at 0.0016 %: read-out: reduce the number of mosquito landings. The procedure, abridged: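 Compounds in ethanol (100 μL, various concentrations) were applied to a sandblasted glass dish covering the warm body (28.3 cm^2), with ethanol as control. Landings were counted automatically from 30 non-blood-fed, sugar-fed Aedes aegypti Rockefeller females aged 5–10 days, under 150 lux.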

Test [2] has as its system Ixodes ricinus. The experiment in a line: Warm Plate assay, tick repellence. As to conditions: for pest or weed control at 400 µg/mL / pest or weed control at 2000 µg/mL / pest or weed control at 10000 µg/mL: Ixodes ricinus, read-out: Percentage of repellence of ticks Ixodes ricinus on the warm plate.
[3] abbreviates: Aedes aegypti, 0.016 mg/mL (Table 3), read-out: Percentage of repellence of mosquitoes Aedes aegypti landing on the warm body.
[4] abbreviates: Aedes aegypti, 0.4 mg/mL (Table 3), read-out: Percentage of repellence of mosquitoes Aedes aegypti landing on the warm body.
Setting [5] is: Aedes aegypti, 10 mg/mL (Table 3), read-out: Percentage of repellence of mosquitoes Aedes aegypti landing on the warm body.
[6] abbreviates: Aedes aegypti, highest tested concentration, 1% (Table 3).
[7] abbreviates: highest tested concentration, 1% (Table 3).
The mark [8] stands for this setting: Aedes aegypti, read-out: Percentage of repellence of mosquitoes Aedes aegypti landing on the warm body.

For the compound `C=CCc1cc(OC)c(O)c(OC)c1` [compound 1191, 4-allyl-2,6-dimethoxyphenol], in test [1] (Aedes aegypti, 0.0032 mg/mL (Table 1), read-out: Percentage of repellence of mosquitoes Aedes aegypti landing on the warm body), the pest or weed control at 3.2 µg/mL stood at 60%. In addition, the pest or weed control at 7.1 µg/mL in test [1] (Aedes aegypti, 0.0071 mg/mL (Table 1), read-out: Percentage of repellence of mosquitoes Aedes aegypti landing on the warm body) was 52%. The pest or weed control at 16 µg/mL in test [1] (Aedes aegypti, 0.016 mg/mL (Table 1), read-out: Percentage of repellence of mosquitoes Aedes aegypti landing on the warm body) worked out at 70%. Further, the pest or weed control at 35.7 µg/mL in test [1] (Aedes aegypti, 0.0357 mg/mL (Table 1), read-out: Percentage of repellence of mosquitoes Aedes aegypti landing on the warm body) was found to be 68%. In test [1] (Aedes aegypti, 0.053 mg/mL (Table 1), read-out: Percentage of repellence of mosquitoes Aedes aegypti landing on the warm body), the pest or weed control at 53 µg/mL is 67%. Moreover, in test [1] (Aedes aegypti, 0.08 mg/mL (Table 1), read-out: Percentage of repellence of mosquitoes Aedes aegypti landing on the warm body), the pest or weed control at 80 µg/mL is 62%. Besides, the pest or weed control at 119 µg/mL in test [1] (Aedes aegypti, 0.119 mg/mL (Table 1), read-out: Percentage of repellence of mosquitoes Aedes aegypti landing on the warm body) turned out to be 50%. For the same compound, in test [1] (Aedes aegypti, 0.178 mg/mL (Table 1), read-out: Percentage of repellence of mosquitoes Aedes aegypti landing on the warm body), the pest or weed control at 178 µg/mL is 86%. The pest or weed control at 267 µg/mL in test [1] (Aedes aegypti, 0.267 mg/mL (Table 1), read-out: Percentage of repellence of mosquitoes Aedes aegypti landing on the warm body) worked out at 86%. The pest or weed control at 400 µg/mL in test [1] (Aedes aegypti, 0.4 mg/mL (Table 1), read-out: Percentage of repellence of mosquitoes Aedes aegypti landing on the warm body) was 93%; in test [2] it was 41.7%. Moreover, in test [1] (Aedes aegypti, 0.598 mg/mL (Table 1), read-out: Percentage of repellence of mosquitoes Aedes aegypti landing on the warm body), the pest or weed control at 598 µg/mL was 98%. Also, in test [1] (Aedes aegypti, 0.89 mg/mL (Table 1), read-out: Percentage of repellence of mosquitoes Aedes aegypti landing on the warm body), the pest or weed control at 890 µg/mL came out at 98%. Also, the pest or weed control at 2000 µg/mL in test [1] (Aedes aegypti, 2 mg/mL (Table 1), read-out: Percentage of repellence of mosquitoes Aedes aegypti landing on the warm body) turned out to be 97%; in test [2] it was 58.3%. Besides, the pest or weed control at 4470 µg/mL in test [1] (Aedes aegypti, 4.47 mg/mL (Table 1), read-out: Percentage of repellence of mosquitoes Aedes aegypti landing on the warm body) worked out at 98%. The pest or weed control at 10000 µg/mL stood at 100% in test [1] (Aedes aegypti, 10 mg/mL (Table 1), read-out: Percentage of repellence of mosquitoes Aedes aegypti landing on the warm body) and 91.7% in test [2]. The compound further came in with a reduce mosquito landing in test [1] (since the lowest concentrations assessed (Table 1)) not below 50%.

Turning to `COc1ccc(OC)c(OC)c1` [compound 1201, 1,2,4-trimethoxybenzene], the pest or weed control at 3.2 µg/mL in test [1] (Aedes aegypti, 0.0032 mg/mL (Table 2), read-out: Percentage of repellence of mosquitoes Aedes aegypti landing on the warm body) turned out to be 46%. Further, the pest or weed control at 16 µg/mL in test [1] (Aedes aegypti, 0.016 mg/mL (Table 2), read-out: Percentage of repellence of mosquitoes Aedes aegypti landing on the warm body) turned out to be 82%. The pest or weed control at 35.7 µg/mL in test [1] (Aedes aegypti, 0.0357 mg/mL (Table 2), read-out: Percentage of repellence of mosquitoes Aedes aegypti landing on the warm body) turned out to be 58%. The pest or weed control at 80 µg/mL in test [1] (Aedes aegypti, 0.08 mg/mL (Table 2), read-out: Percentage of repellence of mosquitoes Aedes aegypti landing on the warm body) came out at 72%. Further, the pest or weed control at 178 µg/mL in test [1] (Aedes aegypti, 0.178 mg/mL (Table 2), read-out: Percentage of repellence of mosquitoes Aedes aegypti landing on the warm body) turned out to be 63%. Further, the pest or weed control at 400 µg/mL amounted to 79% in test [1] (Aedes aegypti, 0.4 mg/mL (Table 2), read-out: Percentage of repellence of mosquitoes Aedes aegypti landing on the warm body) and 0% in test [2]. The pest or weed control at 890 µg/mL in test [1] (Aedes aegypti, 0.89 mg/mL (Table 2), read-out: Percentage of repellence of mosquitoes Aedes aegypti landing on the warm body) came out at 95%. Further, the pest or weed control at 2000 µg/mL in test [1] (Aedes aegypti, 2 mg/mL (Table 2), read-out: Percentage of repellence of mosquitoes Aedes aegypti landing on the warm body) amounted to 89%; in test [2] it was 23.1%. The pest or weed control at 10000 µg/mL amounted to 96% in test [1] (Aedes aegypti, 10 mg/mL (Table 2), read-out: Percentage of repellence of mosquitoes Aedes aegypti landing on the warm body) and 100% in test [2]. The “decrease the number of mosquito landings” value in test [1] (lowest doses tested (0.00032% & 0.0016%) (Table 2)) was “two folds”. Further, the ticks repelled entry in test [2] (concentration of 1% (Table 10)) was “repel all the ticks”.

In the case of `CC=Cc1cccc(OC)c1OC` [compound 1125, 1,2-dimethoxy-3-prop-1-enylbenzene], the pest or weed control at 16 µg/mL in test [1] (setting [3]) came to 32%. Also, the pest or weed control at 400 µg/mL is 78% in test [1] (setting [4]) and 25% in test [2]. Further, the pest or weed control at 10000 µg/mL in test [1] (setting [5]) amounted to 92%; in test [2] it was 91.7%. Besides, the pest or weed control at 1 % in test [1] (setting [6]) is more than 90%. For the same compound, the pest or weed control at 0.04 % in test [1] (Aedes aegypti) is more than 75%. Besides, the “repellence of ticks Ixodes ricinus” value in test [2] (1% of stimulus applied (Table 9)) is “above 90%”. Moreover, the pest or weed control at 2000 µg/mL in test [2] stood at 36.4%.

Regarding `COc1ccc(C(C)=O)c(O)c1` [compound 1559, 2-hydroxy-4-methoxyacetophenone], the results for the “Percentage of repellence of mosquitoes Aedes aegypti landing on the warm body” value in test [1] (0.016 mg/mL (Table 3)), in test [1] (0.4 mg/mL (Table 3)) and in test [1] (10 mg/mL (Table 3)) were 90%, 98% and 98%, respectively. In addition, the results for the “Percentage of repellence of ticks Ixodes ricinus on the warm plate” value in test [2] (0.4 mg/mL (Table 10)), in test [2] (2 mg/mL (Table 10)) and in test [2] (10 mg/mL (Table 10)) were 13.3%, 57.1% and 91.7%, respectively.

`COc1ccc(C=O)c(OC)c1OC` [compound 2267, 2,3,4-trimethoxybenzaldehyde]: the pest or weed control at 16 µg/mL in test [1] (setting [3]) was determined as 0%. Besides, in test [1] (setting [4]), the pest or weed control at 400 µg/mL stood at 81%. Besides, the pest or weed control at 10000 µg/mL in test [1] (setting [5]) is 96%. The pest or weed control at 1 % in test [1] (setting [6]) was more than 90%. In test [1] (Aedes aegypti), the pest or weed control at 0.04 % is more than 75%. Moreover, in test [2], the pest or weed control at 400 µg/mL was 66.7%, the pest or weed control at 2000 µg/mL was 86.7% and the pest or weed control at 10000 µg/mL was 71.4%.

As for `C=CCOCc1ccc(O)c(OCC)c1` [compound 1479, 4-[(allyloxy)methyl]-2-ethoxyphenol], the pest or weed control at 16 µg/mL in test [1] (setting [3]) is 55%. Besides, the pest or weed control at 400 µg/mL in test [1] (setting [4]) turned out to be 89%; in test [2] it was 66.7%. For the same compound, the figures for the pest or weed control at 10000 µg/mL in test [1] (setting [5]) and in test [2] were 98% and 100%, respectively. Also, in test [1] (setting [6]), the pest or weed control at 1 % was more than 90%. Further, the pest or weed control at 0.04 % in test [1] (Aedes aegypti) was more than 75%. Besides, the pest or weed control at 0.0016 % in test [1] (Aedes aegypti, lowest concentration of 0.0016% (Table 3)) was more than 50%. In addition, in test [2], the pest or weed control at 2000 µg/mL came out at 100%. Further, the ticks repelled result in test [2] (concentration of 1% (Table 10)) is reported as “repel all the ticks”; in test [2] (concentrations of 0.2% and 1% (Table 10)), “repelled all ticks”. In test [2] (lowest tested concentration of 0.04% (Table 10)), the “fraction of the tested ticks repelled” value was “⅔”.

As to `COc1ccc(C(C)=O)c(OC)c1` [compound 1557, 2,4-dimethoxyacetophenone], the “Percentage of repellence of mosquitoes Aedes aegypti landing on the warm body” value stood at 81% in test [1] (0.016 mg/mL (Table 3)), 93% in test [1] (0.4 mg/mL (Table 3)) and 96% in test [1] (10 mg/mL (Table 3)). Also, the “Percentage of repellence of ticks Ixodes ricinus on the warm plate” value in test [2] (0.4 mg/mL (Table 10)) was 25.0%; in test [2] (2 mg/mL (Table 10)), 69.2%; in test [2] (10 mg/mL (Table 10)), 66.7%.

`COc1ccc(C=O)c(OC(C)=O)c1` [compound 1472, (2-formyl-5-methoxyphenyl) acetate]: the pest or weed control at 16 µg/mL in test [1] (setting [3]) was 31%. Moreover, in test [1] (setting [4]), the pest or weed control at 400 µg/mL worked out at 81%. Besides, the pest or weed control at 10000 µg/mL in test [1] (setting [5]) was 100%. Further, the pest or weed control at 1 % in test [1] (setting [6]) was more than 90%. For the same compound, the pest or weed control at 0.04 % in test [1] (Aedes aegypti) is more than 75%. Further, in test [1] (setting [7]), the “mosquito landing within the two minutes of experiments” value is reported as “protect the attractive stimulus for any mosquito landing”. Further, in test [2], the pest or weed control at 400 µg/mL is 0%, the pest or weed control at 2000 µg/mL was determined as 54.5% and the pest or weed control at 10000 µg/mL was 100%. Moreover, the ticks repelled entry in test [2] (concentration of 1% (Table 10)) is “repel all the ticks”.

On to `CC=Cc1ccc(OC)c(OC)c1` [compound 1195, 1,2-dimethoxy-4-prop-1-enylbenzene], for which, in test [1] (setting [8]), the pest or weed control at 16 µg/mL was 56%, the pest or weed control at 400 µg/mL worked out at 69% and the pest or weed control at 10000 µg/mL was 100%. In addition, in test [1] (Aedes aegypti), the pest or weed control at 0.0016 % was more than 50% and the pest or weed control at 1 % is more than 90%. Moreover, the “mosquito landing within the two minutes of experiments” value in test [1] (setting [7]) is recorded as “protect the attractive stimulus for any mosquito landing”. For the same compound, in test [2], the pest or weed control at 400 µg/mL worked out at 46.2%, the pest or weed control at 2000 µg/mL stood at 76.9% and the pest or weed control at 10000 µg/mL stood at 100%. The ticks repelled entry in test [2] (concentration of 1% (Table 10)) is given as “repel all the ticks”.
